Reference: the CheMixHub viscosity set

Assay: xn = mol fraction of the nth substance listed

CCCC[N+](CCCC)(CCCC)CCCC.F[B-](F)(F)F + CC#N
viscosity [mPa·s], 100 kPa
Conditions | x1 = 0.004121 | x1 = 0.008132 | x1 = 0.01219 | x1 = 0.01614 | x1 = 0.02013 | x1 = 0.0241 | x1 = 0.02789 | x1 = 0.03177 | x1 = 0.03562 | x1 = 0.0394
293.15 K | 0.423 | 0.446 | 0.472 | 0.499 | 0.528 | 0.559 | 0.591 | 0.625 | 0.661 | 0.698
298.15 K | 0.404 | 0.426 | 0.45 | 0.475 | 0.502 | 0.532 | 0.561 | 0.594 | 0.628 | 0.663
303.15 K | 0.385 | 0.406 | 0.429 | 0.453 | 0.48 | 0.507 | 0.536 | 0.567 | 0.599 | 0.633
308.15 K | 0.369 | 0.389 | 0.411 | 0.433 | 0.458 | 0.484 | 0.511 | 0.54 | 0.57 | 0.602
313.15 K | 0.354 | 0.373 | 0.393 | 0.414 | 0.437 | 0.462 | 0.487 | 0.514 | 0.543 | 0.572
318.15 K | 0.34 | 0.358 | 0.377 | 0.397 | 0.418 | 0.441 | 0.464 | 0.489 | 0.516 | 0.544
323.15 K | 0.327 | 0.344 | 0.362 | 0.38 | 0.4 | 0.422 | 0.443 | 0.467 | 0.491 | 0.517

CCCCCCN + CCCCN(CCCC)CCCC
viscosity [mPa·s], 101 kPa
Conditions | x2 = 0.1032 | x2 = 0.1936 | x2 = 0.3936 | x2 = 0.4924 | x2 = 0.6079 | x2 = 0.782 | x2 = 0.9153
303.15 K | 0.7562 | 0.7958 | 0.8857 | 0.9301 | 0.9836 | 1.063 | 1.125
313.15 K | 0.6517 | 0.6853 | 0.7606 | 0.7985 | 0.8436 | 0.9122 | 0.9652

NCCC(=O)N[C@@H](Cc1c[nH]cn1)C(=O)O + O
viscosity [mPa·s], 100 kPa
Conditions | x1 = 0.000358 | x1 = 0.00054 | x1 = 0.000713 | x1 = 0.00108 | x1 = 0.00126 | x1 = 0.00143 | x1 = 0.00162
293.15 K | 1.024 | 1.028 | 1.03 | 1.046 | 1.053 | 1.058 | 1.06
298.15 K | 0.908 | 0.909 | 0.915 | 0.928 | 0.933 | 0.938 | 0.938
303.15 K | 0.813 | 0.814 | 0.818 | 0.831 | 0.835 | 0.839 | 0.84
308.15 K | 0.732 | 0.733 | 0.738 | 0.747 | 0.752 | 0.756 | 0.756
313.15 K | 0.663 | 0.664 | 0.669 | 0.676 | 0.681 | 0.683 | 0.685

Cc1ccc(S(=O)O[C@@H]2C[C@H](C)CC[C@H]2C(C)C)cc1 (stereo partly specified) + CCCCO
298 K, 101.3 kPa
Conditions | viscosity [mPa·s]
x1 = 0.00285 | 2.53
x1 = 0.00515 | 2.538
x1 = 0.007672 | 2.595
x1 = 0.01005 | 2.623
x1 = 0.01302 | 2.653
x1 = 0.01567 | 2.683

COCCOCCOC + c1ccc2c(c1)CCCC2
viscosity [mPa·s], 101.33 kPa
Conditions | x1 = 0.1028 | x1 = 0.1977 | x1 = 0.3019 | x1 = 0.3993 | x1 = 0.5009 | x1 = 0.666 | x1 = 0.7016 | x1 = 0.7949 | x1 = 0.8987
298.15 K | 1.786 | 1.637 | 1.5 | 1.396 | 1.294 | 1.197 | 1.144 | 1.087 | 1.032
303.15 K | 1.619 | 1.487 | 1.367 | 1.275 | 1.185 | 1.071 | 1.05 | 1 | 0.95
308.15 K | 1.472 | 1.355 | 1.249 | 1.17 | 1.087 | 0.984 | 0.967 | 0.922 | 0.879
313.15 K | 1.348 | 1.245 | 1.15 | 1.078 | 1.004 | 0.913 | 0.897 | 0.859 | 0.815
